We go through 23 molecules from PubChem BioAssay AID588540 (NMMLSC, 2011).

The source made the active and inactive calls.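 How the source made its calls: active means viability below 80%, treated as toxic; inactive means the rest.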

The test system of the assay is HEK-293 viability, CellTiter-Glo, 3 days. The assay can be described thus: viability loss in HEK-293 cells – cell-based, powder set 1, set 2, cytotoxicity control for GRK2 aptamer-displacement inhibitor project, late-stage follow-up (AID 588540). The note with it: at 20 µM; stronger effect = lower value.
What is called viability is a read-out of living cells in per cent, often relative to untreated cells. Turning to `O=C(CSc1nc2ccccc2c(=O)n1-c1ccccc1)NC(=O)CN1CCCC1=O`, the viability is 116% (inactive). Under `Cc1ccccc1NC(=O)CCS(=O)(=O)c1ccc(Br)s1` stands 94.2% (inactive); under `Cc1cc2ccccc2n1CCNC(=O)C(C)Oc1ccccc1` (stereo not drawn), 68.6%.

In the case of `COc1ccc([N+](=O)[O-])cc1NC(=O)CCS(=O)(=O)c1ccc(Br)cc1`, the viability is 118% (inactive).

In the case of `Cc1ccc(CCNC(=O)CCS(=O)(=O)c2ccc(Br)cc2)cc1`, the viability is 126% (inactive). Regarding `O=C(CN1CCc2ccccc21)NC(=O)NCc1ccccc1`, the viability was 56.1%. Under `CCOc1ccccc1NC(=O)CCS(=O)(=O)c1ccc(Br)cc1` stands 79.5% (inactive); under `Cc1cccc(CCNC(=O)CCS(=O)(=O)c2ccc(Br)cc2)c1`, 129% (inactive); under `COc1ccc(Cl)cc1NC(=O)CCS(=O)(=O)c1ccc(Br)cc1`, 106% (inactive).

Take `NS(=O)(=O)c1ccc(CCNC(=O)CCS(=O)(=O)c2ccc(Br)cc2)cc1`: the viability is 124% (inactive). Under `COc1ccc(CCNC(=O)CCS(=O)(=O)c2ccc(Br)cc2)cc1OC` stands 120% (inactive); under `CCOc1ccc(NC(=O)CCS(=O)(=O)c2ccc(Br)cc2)cc1`, 108% (inactive).

Turning to `O=C(CCS(=O)(=O)c1ccc(Br)cc1)Nc1ccc(Br)cc1F`, the viability was 116% (inactive).

As for `CCN(CC)c1ccc(NC(=O)CCS(=O)(=O)c2ccc(Br)cc2)c(C)c1`, the viability is 97.3% (inactive). Under `COC(=O)c1ccccc1NC(=O)CCS(=O)(=O)c1ccc(Br)s1` stands 81.6% (inactive). For the molecule `CC(=O)N1CCN(Cc2nc3cc(Cl)ccc3c(=O)[nH]2)CC1`, the viability was 124% (inactive). Under `COC(=O)c1ccc(NC(=O)CCS(=O)(=O)c2ccc(Br)cc2)cc1` stands 126% (inactive); under `COc1ccc(NC(=O)CCS(=O)(=O)c2ccc(Br)s2)cc1`, 86.8% (inactive); under `CC(CS(=O)(=O)c1ccc2c(c1)NC(=O)CS2)C(=O)NCc1ccccc1Cl` (stereo not drawn), 119% (inactive). Under `O=C(O)Cc1ccc(-n2cccc2)cc1` stands 125% (inactive); under `C#CCSc1nc2sc3c(c2c(=O)n1C)CCC3`, 92.8% (inactive).

Regarding `O=C(CCS(=O)(=O)c1ccc(Br)cc1)NCc1cccs1`, the viability was 131% (inactive).

As to `O=C(CCS(=O)(=O)c1ccc(Br)s1)Nc1ccccc1Br`, the viability is 71.3%.
